Assays:
MDA-MB-231 cells [1] = assay: Migration assay (wound healing); format: cell-based, human; settings: for concentration at which differences in wound area were evident: wound healing, 12 h after injury
Description: Cellular migration was measured by the wound healing assay. Cells (7×10^5 cells per well) were seeded in six-well plates. Cells were kept in complete (10% FBS) medium. Cell monolayer was wounded with a plastic tip across the monolayer cells. Wound closures were photographed by a phase contrast microscopy (40×) in the time point 4, 8 and 12 h after scraping. The width of the wound was determined with the Image Pro-Plus program.
For the wound healing assay, cells were incubated with either vehicle (control), the compound of the invention (inhibitor A) (50 μM) and Rosiglitazone (200 μM). At the specified time points, the distance between the wound edges was measured using Image-Pro Plus software. Results are shown in FIG. 4A-D. Data represent the mean±SD of three independent experiments.

MDA-MB-231 cells [2] = assay: Cell proliferation inhibition in breast cancer cell line, BrdU incorporation assay; format: cell-based; settings: Homo sapiens, 96 h incubation
Source text: In this experiment, ACSL4 inhibition was studied through proliferation inhibition of MDA-MB-231 cells. Human breast cancer cell line MDA-MB-231 was generously provided by Dr. Vasilios Papadoupoulus (Research Institute of the McGill University Health Centre, Montreal, Canada) and obtained from the Lombardi Comprehensive Cancer Center (Georgetown University Medical Center, Washington D.C. USA), validated by ATCC Cell Line Authentication Service as 100% matching to ATCC cell line HTB-26 (MDA-MB-231).
The medium was then changed to serum-free medium.
After 24 h, the cells were switched to 10% FBS-supplemented D-MEM medium and incubated with i) ACSL4 inhibitor A, ii) ACSL4 inhibitor B or iii) rosiglitazone for 96 h.

PC-3 cells = assay: Cell proliferation inhibition in prostate cancer cell line, BrdU incorporation assay; format: cell-based; settings: Homo sapiens, 96 h incubation
Description: ACSL4 inhibition was also assessed through proliferation inhibition in the Pc-3 cell line. PC-3 human prostate cancer cell line was generously provided by Dr. Susana Nowicky and validated by ATCC Cell Line Authentication Service as 100% matching to ATCC cell line CRL-1435 (PC-3).
The medium was then changed to serum-free medium. After 24 h, the cells were switched to 10% FBS-supplemented D-MEM medium and incubated with i) ACSL4 inhibitor A, ii) ACSL4 inhibitor B or iii) rosiglitazone for 96 h.

MA-10 Leydig cells = assay: Steroidogenesis assay, progesterone production in cAMP-stimulated MA-10 Leydig cells; format: cell-based, mouse
Description: (§1) In the present example, ACSL4 inhibitor effects on steroid production were tested by stimulating MA 10 Leydig and Y1 adrenal cells with cAMP (0.5 mM) for 1 hour and assessing progesterone levels. MA-10 mouse Leydig tumor cells were generously provided by Dr. Mario Ascoli (University of Iowa, Iowa City, Iowa) and cultured in Waymouth MB/752 medium supplemented with 15% horse serum and antibiotics at 37° C. and 5% CO2 as previously described. The culture medium was replaced with serum-free Waymouth medium before experiments.

Solubility = format: physicochemical; settings: compared with compound B
steroid synthesis = assay: Steroidogenesis in male mice stimulated with hCG; format: in vivo, BALB/c mice
Description: Thirty-day-old male BALB/c mice were treated with inhibitor A (10-100 μM) i.p at a dose of 50 ul/mice. After 3 hours the animal received a single s.c injection of human Chorionic Gonadotrophin (300 U/mice). After 3 hours the animal were sacrificed and assessed for testosterone, pregnenolone and progesterone levels FIG. 13 A, corticosterone FIG. 13 B and steroids in Pc-3 cell FIG. 13 C.

Y1 adrenal cells = assay: Steroidogenesis assay, progesterone production in cAMP-stimulated Y1 adrenal cells; format: cell-based, mouse; settings: cAMP 0.5 mM, 1 hour
Description: as §1
Murine Y1 adrenocortical tumor cells were generously provided by Dr B Schimmer (University of Toronto, Toronto, Canada). Methods for the culture of Y1 mouse adrenal tumor cells (American Type Culture Collection, Rockville, MD, USA) have been published elsewhere (Schimmer 1979). Cells were maintained at 37 C in growth medium (HAM F10) containing fetal bovine (2·5%) and horse (12·5%) sera.

MDA-MB231 cells = assay: Tumor growth in chick embryo chorioallantoic membrane (CAM) assay; format: in vivo; settings: 100 μM, in ovo, Kruskal-Wallis p<0.0001
Description: In this experiment, the in vivo CAM assay platform of IPATIMUP was used to test the effect of inhibitor A to inhibit tumor growth in vivo. The CAMP is a preclinical in vivo model for drug screening.
Chicken eggs in the early phase of breeding are between in vitro and in vivo systems and provide a vascular test environment not only to study angiogenesis but also to study tumorigenesis. Since the lymphoid system is not fully developed until late stages of incubation, the chick embryo serves as a naturally immunodeficient host capable of sustaining grafted tissues and cells without species-specific restrictions.
As previously described, breast cancer MDA-MB231 cell line was used as a cell model to assess tumor cell growth. The effects of the compound were compared to those of the vehicle (DMEM).
The test compound, at the 10 μM and 100 μM, were inoculated together with 0.5×10^6 MDA-MB231 cells into a total of 53 eggs (distributed in two independent experiments), at embryonic development day (EDD) 10. The effects of the compound A were compared to those of the vehicle (DMEM).
Xenografted cells/tumors were treated in ovo on EDD12 and the experiment ended at EDD 14. At the endpoint, CAMs were fixed (with paraformaldehyde), excised from the embryo and photographed ex ovo.
The pictures were used to determine the number of neo vessels growing radially towards the inoculation site. […]

ACSL4 [3] = molecular target: T1, ACSL4 (Mus musculus, UniProt Q9QUJ7); assay: 3H-arachidonic acid incorporation into MA-10 Leydig cells (ACSL4 activity); format: cell-based; settings: cAMP stimulated
T1 construct: evaluated in MA-10 Leydig cells, in which ACSL4 activity plays a key role in steroids synthesis; endogenous in cells; host or cells: MA-10 mouse Leydig tumor cells
T1 sequence (Q9QUJ7 whole entry): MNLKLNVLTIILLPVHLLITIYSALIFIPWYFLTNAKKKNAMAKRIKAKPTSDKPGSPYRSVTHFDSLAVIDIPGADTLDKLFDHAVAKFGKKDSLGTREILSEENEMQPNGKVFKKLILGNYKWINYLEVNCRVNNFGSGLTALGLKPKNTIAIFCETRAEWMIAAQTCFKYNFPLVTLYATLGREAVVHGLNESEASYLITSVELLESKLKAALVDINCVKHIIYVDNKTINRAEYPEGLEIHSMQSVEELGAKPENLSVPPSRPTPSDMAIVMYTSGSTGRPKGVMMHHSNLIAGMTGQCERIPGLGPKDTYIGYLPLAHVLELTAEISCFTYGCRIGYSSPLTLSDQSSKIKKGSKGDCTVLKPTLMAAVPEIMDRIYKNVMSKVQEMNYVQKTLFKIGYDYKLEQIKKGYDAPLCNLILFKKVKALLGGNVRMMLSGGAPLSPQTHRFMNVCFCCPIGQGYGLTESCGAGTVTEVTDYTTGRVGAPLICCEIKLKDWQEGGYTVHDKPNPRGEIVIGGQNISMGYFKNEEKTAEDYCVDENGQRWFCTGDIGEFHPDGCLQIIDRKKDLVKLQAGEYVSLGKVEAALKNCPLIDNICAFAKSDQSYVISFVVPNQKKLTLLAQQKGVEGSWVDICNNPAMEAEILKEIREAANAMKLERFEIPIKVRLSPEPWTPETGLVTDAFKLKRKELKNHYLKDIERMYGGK
Description: The effects of the ACSL4 inhibitor of the invention were evaluated in MA-10 Leydig cells, in which ACSL4 activity plays a key role in steroids synthesis.
(§2) ACSL4 activity was determined by measuring the transformation of arachidonic acid (AA) into enzyme product arachidonoyl-CoA (AA CoA), through ^3H-AA incorporation expressed as CPM/10^6 cells×10^−3 with results showing significant ACSL4 inhibition and a consequent significant reduction in AA CoA levels.
ACSL4 activity was stimulated with cAMP.

ACSL4 [4] = molecular target: T2, ACSL4 (Homo sapiens, UniProt O60488); assay: 3H-arachidonic acid incorporation into MDA-MB-231 cells (ACSL4 activity); format: cell-based; settings: serum stimulated
T2 construct: evaluated in MDA-MB-231 cells, in which ACSL4 activity plays a key role in tumor biology; endogenous in cells; host or cells: MDA-MB-231
T2 sequence (O60488 whole entry): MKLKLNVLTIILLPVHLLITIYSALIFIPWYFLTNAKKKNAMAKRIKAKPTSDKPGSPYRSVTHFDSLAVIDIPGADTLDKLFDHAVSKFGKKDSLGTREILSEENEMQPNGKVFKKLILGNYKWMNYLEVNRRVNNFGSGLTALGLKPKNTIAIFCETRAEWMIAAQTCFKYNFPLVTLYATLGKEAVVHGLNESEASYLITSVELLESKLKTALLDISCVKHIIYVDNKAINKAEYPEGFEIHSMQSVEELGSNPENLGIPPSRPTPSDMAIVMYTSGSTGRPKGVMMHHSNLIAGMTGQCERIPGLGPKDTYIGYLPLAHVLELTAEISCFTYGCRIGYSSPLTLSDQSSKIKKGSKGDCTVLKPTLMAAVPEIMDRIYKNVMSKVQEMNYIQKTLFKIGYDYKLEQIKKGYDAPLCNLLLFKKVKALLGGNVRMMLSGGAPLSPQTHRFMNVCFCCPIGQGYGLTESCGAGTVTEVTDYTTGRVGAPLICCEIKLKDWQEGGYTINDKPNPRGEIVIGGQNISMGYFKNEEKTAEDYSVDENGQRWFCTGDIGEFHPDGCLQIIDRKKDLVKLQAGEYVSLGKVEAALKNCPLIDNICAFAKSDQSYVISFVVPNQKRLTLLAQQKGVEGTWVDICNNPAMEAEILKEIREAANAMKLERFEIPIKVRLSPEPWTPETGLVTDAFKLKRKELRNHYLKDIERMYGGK
Description: The effects of the ACSL4 inhibitor of the invention were evaluated in MDA-MB-231 cells, in which ACSL4 activity plays a key role in tumor biology.
as §2
ACSL4 activity was stimulated with serum in tumoral cells.

Row | Structure (SMILES) | concentration at which differences in wound area were evident (MDA-MB-231 cells [1]) [µM] | IC50 (MDA-MB-231 cells [2]) [µM] | IC50 (PC-3 cells) [µM] | inhibition of progesterone synthesis (MA-10 Leydig cells) | release of progesterone (MA-10 Leydig cells; 10 μM, control 3.26 ng/ml) [ng/mL] | solubility (Solubility) | minimal concentration significantly inhibiting steroid synthesis (steroid synthesis; i.p. 50 ul/mice, hCG stimulation (Example 12)) [µM] | dose at which there was already response in inhibiting steroidogenesis (steroid synthesis; in vivo experiment in mice, FIG. 13 A) [µM] | minimal concentration significantly inhibiting steroid synthesis (Y1 adrenal cells) [µM] | inhibition of cell migration (wound healing) (MDA-MB-231 cells [1]; MDA-MB-231 cells, 50 μM) | tumor growth (tumor area) versus vehicle (MDA-MB231 cells) | concentrations for inhibiting ACSL4 activity (3H-AA incorporation) (ACSL4 [3]) | minimal concentration significantly inhibiting steroid synthesis (MA-10 Leydig cells; cAMP 0.5 mM, 1 hour, progesterone) [µM] | concentrations for inhibiting ACSL4 activity (3H-AA incorporation) (ACSL4 [4])
1 | CN(CCOc1ccc(CC2SC(=O)NC2=O)cc1)c1ccccn1 (centres unmarked) [Rosiglitazone, reference compound] | 200 | 180 | 100 |  |  |  |  |  |  |  |  |  |  | 
2 | CCC/C=C/C/C=C/C=C/C=N/NN=O [Triacsin C] |  |  |  | failed to inhibit progesterone synthesis | 46.5 |  |  |  |  |  |  |  |  | 
3 | CC(=O)NC1=Nc2nc3ccccc3n2C(c2cn(-c3ccccc3)nc2-c2ccc(C)o2)N1 (centres unmarked) [inhibitor A, N-(4-(3-(5-methylfuran-2-yl)-1-phenyl-1H-pyrazol-4-yl)-3,4-dihydrobenzo[4,5]imidazo[1,2-a][1,3,5]triazin-2-yl)acetamide] | 50 | 23 | 27 |  |  | higher than the solubility of compound B | 25 | 10 | 5 | succeeded in inhibiting the migration | Significant statistical differences | lower than those required for rosiglitazone | 5 | lower than those required for rosiglitazone
4 | Cc1ccc(-c2nn(-c3ccccc3)cc2C2NC(N)=Nc3nc4ccccc4n32)o1 (centres unmarked) [inhibitor B, 4-(3-(5-methylfuran-2-yl)-1-phenyl-1H-pyrazol-4-yl)-3,4-dihydrobenzo[4,5]imidazo[1,2-a][1,3,5]triazin-2-amine] | 100 | 45 | 48 |  |  |  |  |  |  |  |  |  |  | 
